The values that follow come from patent US20060167030A1, “Sulfonamido-macrocycles and the salts thereof, a pharmaceutical composition comprising these compounds, the method of preparing and the use thereof” (priority 2004, published 2006).

For one data set, the target named is T1, Tie2 (Homo sapiens, UniProt Q02763).
T1 construct: fused on or other part: GST in the kinase assays; none in the CHO cell assay
In words: Tie2 kinase assay or Tie2 autophosphorylation ELISA test (not stated which). Conditions: either assay; not specified per compound; read-out: IC50 of Tie2 inhibition, either in the Tie2 kinase assay or in the Tie2 autophosphorylation ELISA test. The format is biochemical. The text has this: Biological Experiment 1: ELISA Method
Herein CHO cell-cultures, which are stably transfected by known techniques with Tie2 using DHFR deficiency as selection marker, are stimulated by angiopoietin-2. The specific autophosphorytation of Tie2 receptors is quantified with a sandwich-ELISA using anti-Tie2 antibodies for catch and anti-phosphotyrosine antibodies coupled to HRP as detection.
• 96 well tissue culture plate, sterile, Greiner • 96 well FluoroNunc plate MaxiSorp Surface C, Nunc • 96 well plate polypropylene for compound dilution in DMSO • CHO Tie2/DHFR (transfected cells) • PBS−; PBS++, DMSO • MEM alpha Medium with Glutamax-I without Ribonucleosides and Deoxyribonucleosides (Gibco #32561-029) • with 10% FCS after dialysis! and 1% PenStrep • Lysis buffer: 1 Tablet “Complete” protease inhibitor • 1 cap Vanadate (1 mL>40 mg/mL; working solution 2 mM) • ad 50 mL with Duschl-Puffer • pH 7.6 • Anti-TIE-II antibody 1:425 in Coating Buffer pH 9.6 • Stock solution: 1.275 mg/mL>working: 3 μg/mL • PBST: 2 bottles PBS(10×)+10 ml Tween, fill up with VE-water • RotiBlock 1:10 in VE-water • Anti-Phosphotyrosine HRP-Conjugated 1:10000 in 3% TopBlock • 3% TopBlock in PBST • BM Chemiluminescence ELISA Substrate (POD) • solution B 1:100 solution A • SF9 cell culture medium • Ang2-Fc in SF9 cell culture medium Cell Experiment: • Dispense 5×10^4 cells/well/98 μL in 96 well tissue culture plate • Incubate at 37° C./5% CO2 • After 24 h add compounds according to desired concentrations • Add also to control and stimulated values without compounds 2 μL DMSO • And mix for a few min at room temperature • Add 100 μL Ang2-Fc to all wells except control, which receives insect medium • Incubate 20 min at 37° C. • Wash 3× with PBS++ • Add 100 μl Lysis buffer/well and shake a couple of min at room temperature • Store lysates at […] before utilizing for the ELISA Performance of Sandwich-ELISA • Coat 96 well FluoroNunc Plate MaxiSorp Surface C with anti-Tie2 Mab • 1:425 in Coating buffer pH 9.6; 100 μL/well overnight at 4° C. • Wash 2× with PBST • Blcock plates with 250 μL/well RotiBtock 1:10 in VE-water • Incubate for 2 h at room temperature or overnight at 4° C. shaking • Wash 2× in PBST • Add thawed lysates to wells and incubate overnight shaking at 4° C. • Wash 2× with PBST • Add 100 μL/well anti-Phosphotyrosine HRP-Conjugated 1:10000 in 3% TopBLock (3% TopBLock in PBST) and incubate overnight under shaking • Wash 6× with PBST • Add 100 μL/well BM Chemiluminescence ELISA Substrate (POD) solutions 1 und 2 (1:100) • Determine luminescence with the LumiCount. Biological Experiment 2: Tie-2-Kinase HTRF-Assay
Tie-2 phosphorylates tyrosine residues of the artificial substrate poLyGAT (biolinylated poLyGLuAlaTyr). Detection of phosphorylated product is achieved specifically by a trimeric detection complex consisting of the phosphorylated substrate, streptavidin-XLent (SA-XLent) which binds to biotin, and Europium Cryptate-LabeLed anti-phosphotyrosine antibody PT66 which binds to phosphorylated tyrosine. Excitation of Europium fluorescence with 337 nm light results in emission of long-lived light with 620 nm. In case a trimeric detection complex has formed, part of the energy will be transferred to the SA-XLent fluorophore that itself then emits long-lived light of 665 nm (FRET: fluorescence resonance energy transfer). […] Measurement is performed in a Packard Discovery or BMG Rubystar instrument. A-counts (emission at 665 nm) will be divided by B-counts (emission at 620 nm) and multiplicated with a factor of 10000. The resulting numbers are called the “well ratio” of the sample.
A recombinant fusion protein of GST and the intracellular domains of Tie-2, expressed in insect cells (Hi-5) and purified by Glutathion-Sepharose affinity chromatography was used as kinase. Alternatively, commercially available GST-Tie2-fusion protein (Upstate Biotechnology, Dundee, Scotland) can be used. […]
Background: In an ELISA, binding on a coated surface is turned into a signal by an enzyme label.

A short description of data set [1]: Proliferation test / cytotoxicity assay (crystal violet). The format is cell-based. The settings on record: human, DU 145 tumour cells; cell line DU 145. On the procedure: Biological Experiment 3: Proliferation Test
To examine cell toxicity a cell proliferation test were established.
With the cell proliferation test different tumour cell lines (e.g. Du 145) can be examined. The cells were dispensed in RPMI 1640 culture medium, supplied with 10% (v/v) fetal calf serum plus 1% (v/v) Penicillin/Streptomycin solution at a cell density of 2.000 cell/100 μL medium/per well (96 well plate). After three hours the cells were washed with PBS (containing calcium and magnesium). 100 μL of culture medium above with 0.1% (v/v) fetal calf serum was added and cultured at 37° C. and 5% CO2-atmosphere. Next day compounds of the present invention diluted in DMSO for appropriate concentrations were added and further 100 μL culture medium 0.5% (v/v) fetal calf serum. After 5 days cell culturing at 37° C. and 5% CO2-atmosphere cells were washed with PBS. 20 μL of glutaraldehyde solution (11% (v/v)) is added and the cells were slightly shaken at room temperature for 15 min. After that the cell were washed 3 times and dried in the air. 100 μL of crystal violet solution (0.1% at pH 3.5) were added and the cells were shaken for 30 min. The cells were washed with tap water and air-dried. The colour is dissolved with 100 μL of acetic acid (10% (v/v)) under strong shaking for 5 min. The absorption was measured at 595 nm wavelength.

T1 sequence (Q02763 770-1124 limits assumed): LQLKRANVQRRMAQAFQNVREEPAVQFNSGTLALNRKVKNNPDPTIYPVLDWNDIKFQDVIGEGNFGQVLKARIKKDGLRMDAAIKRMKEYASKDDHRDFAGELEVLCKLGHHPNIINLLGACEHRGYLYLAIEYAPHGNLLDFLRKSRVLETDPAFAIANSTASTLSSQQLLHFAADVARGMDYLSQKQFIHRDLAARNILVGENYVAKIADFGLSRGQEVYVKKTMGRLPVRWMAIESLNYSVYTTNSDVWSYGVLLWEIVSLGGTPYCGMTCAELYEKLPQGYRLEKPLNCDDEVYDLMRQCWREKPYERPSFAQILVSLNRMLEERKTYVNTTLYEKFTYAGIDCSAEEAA

On to `COC(=O)c1ccc(-c2cnc3nc2NCCCNS(=O)(=O)c2cccc(c2)N3)cc1` [Example 6, methyl 4-[4,4-dioxo-4λ^6-thia-2,5,9-triaza-1(2,4)-pyrimidina-3(1,3)-benzenacyclononaphan-1^5-yl]benzoate], for which, at Tie2, the IC50 is at most 2 µM. The half-inhibitory concentration (IC50) at 5 days in data set [1] is above 1 µM. For `CC(=O)c1ccc(-c2cnc3nc2NCCCNS(=O)(=O)c2cccc(c2)N3)cc1` [Example 7, 1-[4-[4,4-dioxo-4λ^6-thia-2,5,9-triaza-1(2,4)-pyrimidina-3(1,3)-benzenacyclononaphan-1^5-yl]phenyl]-ethanone] the same measures were at most 2 µM and above 1 µM.

Regarding `O=S1(=O)NCCCNc2nc(ncc2-c2ccccc2)Nc2cccc1c2` [Example 8, 1^5-phenyl-4-thia-2,5,9-triaza-1(2,4)-pyrimidina-3(1,3)-benzenacyclononaphane 4,4-dioxide], on Tie2, the IC50 is at most 2 µM. Besides, the IC50 at 5 days in data set [1] is above 1 µM. With `O=S1(=O)NCCCNc2nc(ncc2-c2ccc(O)cc2)Nc2cccc1c2` [Example 9, 4-[4,4-dioxo-4λ^6-thia-2,5,9-triaza-1(2,4)-pyrimidina-3(1,3)-benzenacyclononaphan-1^5-yl]phenol], on Tie2, the 50% inhibitory concentration (IC50) was at most 2 µM. Take `COc1ccc(-c2cnc3nc2NCCCNS(=O)(=O)c2cccc(c2)N3)cc1` [Example 10, 1^5-(4-methoxyphenyl)-4-thia-2,5,9-triaza-1(2,4)-pyrimidina-3(1,3)-benzenacyclononaphane 4,4-dioxide]: the IC50 on Tie2 was at most 2 µM. The same compound had a 50% inhibitory concentration (IC50) at 5 days in data set [1] above 1 µM. As for `CS(=O)(=O)c1ccc(-c2cnc3nc2NCCCNS(=O)(=O)c2cccc(c2)N3)cc1` [Example 11, 1^5-(4-methylsulfonylphenyl)-4-thia-2,5,9-triaza-1(2,4)-pyrimidina-3(1,3)-benzenacyclononaphane 4,4-dioxide], the half-inhibitory concentration (IC50) at Tie2 was at most 2 µM. On to `O=S1(=O)NCCCNc2nc(ncc2/C=C\c2ccccc2)Nc2cccc1c2` [Example 51, 1^5-((Z)-styryl)-4-thia-2,5,9-triaza-1(2,4)-pyrimidina-3(1,3)-benzenacyclononaphane 4,4-dioxide], for which, at Tie2, the IC50 was at most 2 µM. With `C=C(c1ccccc1)c1cnc2nc1NCCCNS(=O)(=O)c1cccc(c1)N2` [Example 52, 1^5-(1-phenyl-vinyl)-4-thia-2,5,9-triaza-1(2,4)-pyrimidina-3(1,3)-benzenacyclononaphane 4,4-dioxide], the IC50 at Tie2 was at most 2 µM.

The IC50 is the concentration that inhibits the measured activity by half.
